Experimental data: patent US20200352201A1, “METHOD OF VACUUM […] WITH PEROXYC[…] SOLUTIONS” (ZEE COMPANY, INC., priority 2019, published 2020)

Key:
[1] = Vacuum infusing boneless poultry parts, organoleptic shelf life of the ground product; details: vacuum tumbled about 15 minutes at about -0.4 bar, stored at about 4° C., first failure of duplicates
Description: Samples of poultry in an amount of about 1 pound were prepared from boneless poultry parts. Each sample was provided in a vacuum container of a vacuum tumbler in the presence of the antimicrobial solution (peroxyacetic acid (“PAA”) or peroxylactic acid (“PLA”)) provided in Table 1, with the control subjected to the same volume of sterile water. The pressure was reduced in the vacuum tumbler to about −0.4 bar, and the contents were rotated in the vacuum-tumbler while under pressure for a period of time of about 15 minutes. Pressure was then returned to atmospheric pressure and the contents of the vacuum container were subjected to grinding and then stored in a sealed plastic bag at about 4° C. The ground product was evaluated daily for appearance and order until reaching failure by abnormal coloration and/or odor. The Control and each microbial concentration sample was performed in duplicate, with the first date of organoleptic failure for the duplicate samples reported in Table 1.

[2] = Vacuum infusing boneless beef parts, organoleptic shelf life of the ground product; details: vacuum tumbled about 15 minutes at about -0.4 bar, stored at about 4° C., first failure of duplicates
Description: Samples of beef in an amount of about 1 pound were prepared from boneless beef parts. Each sample was provided in a vacuum container of a vacuum tumbler in the presence of the antimicrobial solution (peroxyacetic acid (“PAA”) or peroxylactic acid (“PLA”)) provided in Table 2, with the control subjected to the same volume of sterile water. The pressure was reduced in the vacuum tumbler to about −0.4 bar, and the contents were rotated in the vacuum-tumbler while under pressure for a period of time of about 15 minutes. Pressure was then returned to atmospheric pressure and the contents of the vacuum container were subjected to grinding and then stored in a sealed plastic bag at about 4° C. The ground product was evaluated daily for appearance and order until reaching failure by abnormal coloration and/or odor. The Control and each microbial concentration sample was performed in duplicate, with the first date of organoleptic failure for the duplicate samples reported in Table 1.

Compound | Days to Organoleptic Failure ([1]; 100 ppm) [days] | Days to Organoleptic Failure ([1]; 250 ppm) [days] | Days to Organoleptic Failure ([1]; 500 ppm) [days] | Days to Organoleptic Failure ([1]; 1000 ppm) [days] | Days to Organoleptic Failure ([2]; 100 ppm) [days] | Days to Organoleptic Failure ([2]; 250 ppm) [days] | Days to Organoleptic Failure ([2]; 500 ppm) [days] | Days to Organoleptic Failure ([2]; 1000 ppm) [days]
CC(O)C(=O)OO (stereo not shown) [PLA, peroxylactic acid] | 11 | 14 | 16 | 19 | 11 | 13 | 15 | 17
peroxyacetic acid [PAA] | 11 | 13 | 17 | 19 | 11 | 13 | 15 | 17
